In ChEMBL document CHEMBL1125760, “4-(Tetrazolylalkyl)piperidine-2-carboxylic acids. Potent and selective N-methyl-D-aspartic acid receptor antagonists with a short duration of action” (J Med Chem, 1991):

Assays:
Mus musculus = assay: Tested for antagonism of NMDA induced lethality in neonatal mice (ip) and minimum effective dose (MED) was reported; type: functional; conditions: read-out: MED
Glutamate NMDA receptor [1] = assay: Compound was evaluated in vitro in a cortical-wedge preparation for the antagonism of N-methyl-D-aspartate-induced responses; type: functional
Rattus norvegicus = assay: Tested for antagonism of NMDA induced convulsions in neonatal rats (ip) and minimum effective dose (MED) was reported; type: functional; conditions: read-out: MED
Glutamate NMDA receptor [2] = assay: In vitro binding affinity against N-methyl-D-aspartate glutamate receptor using [3H]CGS-19,755 ligand; type: protein-complex assay

## O=C(O)[C@H]1C[C@@H](Cc2nnn[nH]2)CCN1
Mus musculus
  minimal effective dose: 5 mg/kg
Glutamate NMDA receptor [1]
  IC50: 4.2 µM
Rattus norvegicus
  minimal effective dose: 20 mg/kg

## O=C(O)[C@@H]1C[C@H](CCc2nn[nH]n2)CCN1
Mus musculus
  minimal effective dose: 20 mg/kg
Glutamate NMDA receptor [2]
  IC50: 2.28 µM
Glutamate NMDA receptor [1]
  IC50: 8.1 µM
Rattus norvegicus
  minimal effective dose: 100 mg/kg

## O=C(O)[C@@H]1C[C@H](CCCCc2nn[nH]n2)CCN1
Mus musculus
  minimal effective dose: > 160 mg/kg
Glutamate NMDA receptor [2]
  IC50: > 10 µM

## O=C(O)[C@@H]1C[C@H](CCCc2nn[nH]n2)CCN1
Mus musculus
  minimal effective dose: 10 mg/kg
Glutamate NMDA receptor [1]
  IC50: 12.4 µM
Rattus norvegicus
  minimal effective dose: 100 mg/kg

## O=C(O)[C@H]1C[C@H](Cc2nn[nH]n2)CCN1
Mus musculus
  minimal effective dose: 80 mg/kg
Glutamate NMDA receptor [2]
  IC50: 0.777 µM
Glutamate NMDA receptor [1]
  IC50: 35.2 µM

## CN1CC[C@H](Cc2nn[nH]n2)C[C@@H]1C(=O)O
Mus musculus
  minimal effective dose: > 160 mg/kg
Glutamate NMDA receptor [2]
  IC50: > 10 µM

## O=C(O)[C@@H]1C[C@H](CP(=O)(O)O)CCN1 [SELFOTEL]
Mus musculus
  minimal effective dose: 1.25 mg/kg
Glutamate NMDA receptor [1]
  IC50: 1.7 µM
Rattus norvegicus
  minimal effective dose: 5 mg/kg
